Assay results from the METLIN SMRT retention time set (Domingo-Almenara et al. 2019).

test: gradient 5% acetonitrile 3 min, to 50% in 2 min, to 85% in 15 min, held 3 min, 100 µL/min; details: column: Zorbax Extend-C18 2.1 x 50 mm; eluents: water / acetonitrile, 0.1% formic acid
How it was run: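 A Zorbax Extend-C18 column (2.1 × 50 mm, 1.8 μm) run at 100 μL/min with water and acetonitrile, both containing 0.1% formic acid, separated mixtures of ~100 pure standards. The HPLC was coupled to a quadrupole time-of-flight mass spectrometer operated in positive and negative ionization mode, with dead and dwell volumes of 40 μL and 900 μL. Each retention time was taken from a computationally picked adduct peak that was then manually inspected.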

Question: With `CCC1CN2C=Nc3oc(C)c(C(=O)NCc4ccccc4Cl)c3C2=N1` (stereo not given) as the compound, how does the RP-LC retention time read?
Answer: 681 s

Question: Which RP-LC retention time does the source give for `CCN1c2cc(Cl)ccc2C(=O)NC12CCN(C(=O)Nc1ccc3c(c1)OCO3)CC2` here?
Answer: 826 s

Question: Which RP-LC retention time does the source give for `CCCNC(=O)C1CCN(c2ccc(SCC(=O)Nc3cc(F)cc(F)c3)nn2)CC1` here?
Answer: 665 s

Question: With `COc1ccc(-n2cc(C(=O)O)nn2)cc1OC` as the compound, how does the RP-LC retention time read?
Answer: 638 s

Question: Which RP-LC retention time does the source give for `CCCn1ncc(N2CCC(C(=O)NCc3cccc(F)c3)CC2)cc1=O` here?
Answer: 706 s

Question: For `Cc1ccc(Cn2c(CN3CCC(C(=O)N4CCOCC4)CC3)cc3ccccc32)cc1`, which RP-LC retention time is on record?
Answer: 717 s

Question: With `Cc1cc(C)c(S(=O)(=O)N2CCC(c3cc4n(n3)CCCN(C)C4=O)CC2)cc1C` as the compound, how does the RP-LC retention time read?
Answer: 888 s

Question: For `O=C(Nc1nnc(-c2cccs2)o1)c1ccc([N+](=O)[O-])o1`, which RP-LC retention time is on record?
Answer: 677 s

Question: With `O=C(NCc1noc(-c2cccc(Cl)c2)n1)c1coc(-c2ccccc2)n1` as the compound, how does the RP-LC retention time read?
Answer: 1050 s

Question: With `COC(=O)c1ccc(NC(=O)Cc2csc(Nc3ccc(F)cc3)n2)cc1` as the compound, how does the RP-LC retention time read?
Answer: 838 s

Question: With `COc1ccc(NC(=O)N2CC3CN(C)CC(C2)O3)cc1` as the compound, how does the RP-LC retention time read?
Answer: 560 s

Question: Which RP-LC retention time does the source give for `CCN(CC)C(=O)c1cnc2snc(C)c2c1N1CCC(C(=O)Nc2ccc(Br)c(C)c2)CC1` here?
Answer: 1080 s

Question: For `Cc1cc(C)n(CCN2CCN(C(=O)C3CCC3)CC2)n1`, which RP-LC retention time is on record?
Answer: 546 s

Question: For `CN1CCN(CCNC(=O)CCCn2c(=O)c3cccn3c3ccc(F)cc32)CC1`, which RP-LC retention time is on record?
Answer: 588 s

Question: Which RP-LC retention time does the source give for `CN1CCN(c2nnc(SCC(=O)Nc3cccc(C(F)(F)F)c3)s2)CC1` here?
Answer: 560 s

Question: With `CCc1noc(NC(C)=O)c1-c1ccc(C)c(S(=O)(=O)Nc2ccc(C(F)(F)F)cc2)c1` as the compound, how does the RP-LC retention time read?
Answer: 902 s

Question: With `CCOc1cc(C)c(S(=O)(=O)N2CCC(C(N)=O)CC2)cc1C` as the compound, how does the RP-LC retention time read?
Answer: 715 s

Question: Which RP-LC retention time does the source give for `O=C(Nc1cc(-c2cccs2)no1)C1CCC1` here?
Answer: 862 s

Question: Which RP-LC retention time does the source give for `Cc1cccc(C)c1NC(=O)C1CCN(S(=O)(=O)c2ccc3c(c2)NC(=O)C(C)O3)CC1` (stereo not given) here?
Answer: 824 s

Question: Which RP-LC retention time does the source give for `COc1ccc(-c2nc(NCCC3=CCCCC3)c3ccccc3n2)cc1` here?
Answer: 933 s

Question: With `CC1CCCN(S(=O)(=O)c2cc(C(=O)N3CCCc4ccccc43)n(C)c2)C1` (stereo not given) as the compound, how does the RP-LC retention time read?
Answer: 1060 s

Question: For `CCOC(=O)c1ccc(NC(=O)CC2COc3ccccc3NC2=O)cc1` (stereo not given), which RP-LC retention time is on record?
Answer: 596 s

Question: With `O=C(O)CNS(=O)(=O)c1cccc2nsnc12` as the compound, how does the RP-LC retention time read?
Answer: 595 s

Question: With `Nc1ccc(S(=O)(=O)Nc2cnc3c(Cl)cccc3n2)cc1` as the compound, how does the RP-LC retention time read?
Answer: 719 s

Question: For `COc1ccc(NC(=O)c2cc(C(C)C)n(-c3nc4ccccc4s3)n2)cc1OC`, which RP-LC retention time is on record?
Answer: 1200 s

Question: Which RP-LC retention time does the source give for `Cn1cc(C(=O)NC2CCCCC2)c2cccnc21` here?
Answer: 726 s

Question: For `CN(CC1(C)CCOCC1)S(=O)(=O)c1ccccc1C(F)(F)F`, which RP-LC retention time is on record?
Answer: 820 s

Question: For `COC(=O)c1ccccc1NC(=O)Cn1cnc2nc(-c3ccc(OC)cc3)ncc2c1=O`, which RP-LC retention time is on record?
Answer: 925 s

Question: Which RP-LC retention time does the source give for `Cn1cnc(S(=O)(=O)N2CCC(C(=O)N3CCN(c4cccc(Cl)c4)CC3)CC2)c1` here?
Answer: 780 s

Question: For `CC(=O)N1CCCc2cc(S(=O)(=O)CCC(=O)Nc3ccc(Br)cc3C)ccc21`, which RP-LC retention time is on record?
Answer: 829 s

Question: With `Cc1cc(NC(=O)NCCCSc2nc3ccccc3s2)no1` as the compound, how does the RP-LC retention time read?
Answer: 805 s

Question: Which RP-LC retention time does the source give for `Cn1cc2c3c(cccc31)CN(C(=O)c1ccc(C#N)cc1)CC2` here?
Answer: 884 s

Question: With `Cc1cc(S(=O)(=O)NCC2(C)CCOCC2)ccc1F` as the compound, how does the RP-LC retention time read?
Answer: 840 s

Question: With `CNCc1ccc(-c2ccc(Cl)cc2Cl)o1` as the compound, how does the RP-LC retention time read?
Answer: 658 s

Question: Which RP-LC retention time does the source give for `COc1cc(-c2cc(C(=O)O)c3cc4c(cc3n2)OCCO4)cc(OC)c1OC` here?
Answer: 676 s

Question: Which RP-LC retention time does the source give for `O=C(C1=CN(c2ccccc2)c2cc(Cl)ccc2S1(=O)=O)N1CCCCC1` here?
Answer: 930 s

Question: For `CC(C)n1c(=O)sc2cc(S(=O)(=O)N3CCC(C(=O)N4CCCCC4)CC3)ccc21`, which RP-LC retention time is on record?
Answer: 900 s

Question: For `CCc1c(CN2CCN(c3ccccn3)CC2)csc1C`, which RP-LC retention time is on record?
Answer: 596 s

Question: Which RP-LC retention time does the source give for `O=C(NCC1CC1)c1ccc2c(c1)nc1n2CCN(C2CCCCC2)C1=O` here?
Answer: 706 s

Question: For `Cc1nc(-c2cccc(NC(=O)c3ccc(N4CCCC4)nn3)c2)cs1`, which RP-LC retention time is on record?
Answer: 676 s

Question: With `COCCC(=O)N1CCCN(C2=NS(=O)(=O)C(c3ccc(C)cc3)=C2C)CC1` as the compound, how does the RP-LC retention time read?
Answer: 720 s

Question: For `Cc1cccc(CNC(=O)C2CCN(S(=O)(=O)c3cc(C(=O)N4CCOCC4)cs3)CC2)c1`, which RP-LC retention time is on record?
Answer: 763 s

Question: With `COc1ccc(NC(=O)C2CC(=O)N(c3ccc4c(c3)CCN4C(C)=O)C2)cc1F` (stereo not given) as the compound, how does the RP-LC retention time read?
Answer: 687 s

Question: With `CCCNC(=O)N1CCN(Cc2nc(-c3ccc(OCC)cc3)oc2C)CC1` as the compound, how does the RP-LC retention time read?
Answer: 661 s

Question: For `CC(C)NC(=O)Nc1cc2c(cc1N1CCOCC1)n(C)c(=O)n2C`, which RP-LC retention time is on record?
Answer: 634 s
